Data published in ChEMBL document CHEMBL1687887, “Evolution of potent and stable placental-growth-factor-1-targeting CovX-bodies from phage display peptide discovery” (J Med Chem, 2011).
Bridge positions count the residues as written; N and C are the ends. Peptide text beside a SMILES is read from it. * marks the point of attachment. X1 = O=C(COCC(=O)*)Nc1ccc(CCC(=O)N2CCC2=O)cc1

Key:
[1] = Stability in Swiss Webster mouse serum assessed as functional compound remaining after 6 hrs; format: ADME, cell-free; conditions: read-out: Stability
[2] = molecular target: T1, Placenta growth factor (Homo sapiens, UniProt P49763); test: Binding affinity to human PlGF-1; conditions: read-out: Kd
T1 sequence (P49763 whole entry): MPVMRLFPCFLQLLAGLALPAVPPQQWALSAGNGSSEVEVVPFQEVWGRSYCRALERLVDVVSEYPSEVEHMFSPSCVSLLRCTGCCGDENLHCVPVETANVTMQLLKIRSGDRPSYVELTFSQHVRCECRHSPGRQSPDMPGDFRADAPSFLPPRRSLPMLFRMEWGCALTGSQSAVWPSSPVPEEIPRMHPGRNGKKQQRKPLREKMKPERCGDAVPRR

[3] = molecular target: T2, Placenta growth factor (Mus musculus, UniProt P49764); test: Inhibition of mouse PlGF-VEGFR-1 interaction by ELISA
T2 sequence (P49764 whole entry): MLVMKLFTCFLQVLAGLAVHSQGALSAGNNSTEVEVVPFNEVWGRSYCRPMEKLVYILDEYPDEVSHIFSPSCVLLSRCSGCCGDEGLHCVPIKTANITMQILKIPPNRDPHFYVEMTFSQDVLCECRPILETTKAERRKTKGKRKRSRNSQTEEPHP

| SMILES | remaining at 6 h [1] [%] | Kd [2] [nM] | IC50 [3] [nM] |
| --- | --- | --- | --- |
| CC[C@H](C)[C@@H]1NC(=O)[C@H](Cc2ccc(O)cc2)NC(=O)[C@H](Cc2cnc[nH]2)NC(=O)[C@@H](NC(=O)[C@@H](NC(=O)[C@H](CCC(=O)O)NC(=O)[C@H](Cc2ccccc2)NC(C)=O)C(C)C)CSSC[C@@H](C(=O)N[C@H](C(=O)N[C@@H](CCCN=C(N)N)C(=O)N[C@@H](Cc2ccc(O)cc2)C(N)=O)[C@@H](C)O)NC(=O)[C@H](Cc2cnc[nH]2)NC(=O)[C@@H]2CCCN2C(=O)[C@H](CC(C)C)NC(=O)[C@H](CCCCNC(=O)COCC(=O)Nc2ccc(CCC(=O)N3CCC3=O)cc2)NC1=O | 4 | 0.3 | 0.7 |
| CC[C@H](C)[C@@H]1NC(=O)[C@H](Cc2ccc(O)cc2)NC(=O)[C@H](Cc2cnc[nH]2)NC(=O)[C@@H](NC(=O)[C@@H](NC(=O)[C@H](CCC(=O)O)NC(=O)[C@H](Cc2ccccc2)NC(C)=O)C(C)C)CSSC[C@@H](C(=O)N[C@@H](C(=O)N[C@H](CCCN=C(N)N)C(=O)N[C@H](Cc2ccc(O)cc2)C(N)=O)[C@@H](C)O)NC(=O)[C@H](Cc2cnc[nH]2)NC(=O)[C@@H]2CCCN2C(=O)[C@H](CC(C)C)NC(=O)[C@H](CCCCNC(=O)COCC(=O)Nc2ccc(CCC(=O)N3CCC3=O)cc2)NC1=O | 23 |  | 0.2 |
| CSCC[C@H](NC(=O)[C@@H](NC(=O)[C@H](CCCCNC(C)=O)NC(=O)[C@@H]1CSSC[C@H](NC(=O)[C@@H](NC(=O)[C@H](CC(=O)O)NC(=O)[C@H](Cc2ccccc2)NC(C)=O)C(C)C)C(=O)N[C@@H](CC(N)=O)C(=O)N[C@@H](Cc2c[nH]c3ccccc23)C(=O)N[C@@H](CCCCNC(=O)COCC(=O)Nc2ccc(CCC(=O)N3CCC3=O)cc2)C(=O)N[C@@H]([C@@H](C)O)C(=O)N[C@@H](CC(C)C)C(=O)N2CCC[C@H]2C(=O)N[C@@H](Cc2cnc[nH]2)C(=O)N1)C(C)C)C(N)=O (Ac-FDVCNWK(X1)TLPHCK(Ac)VM-NH2; disulfide 4-12) |  | > 1000 | > 1000 |
| CSCC[C@H](NC(=O)[C@@H](NC(=O)[C@H](CCCCNC(C)=O)NC(=O)[C@@H]1CSSC[C@H](NC(=O)[C@@H](NC(=O)[C@H](CC(=O)O)NC(=O)[C@H](Cc2ccccc2)NC(C)=O)C(C)C)C(=O)N[C@@H](CC(N)=O)C(=O)N[C@@H](Cc2c[nH]c3ccccc23)C(=O)N[C@@H](C(C)C)C(=O)N[C@@H]([C@@H](C)O)C(=O)N[C@@H](CCCCNC(=O)COCC(=O)Nc2ccc(CCC(=O)N3CCC3=O)cc2)C(=O)N2CCC[C@H]2C(=O)N[C@@H](Cc2cnc[nH]2)C(=O)N1)C(C)C)C(N)=O (Ac-FDVCNWVTK(X1)PHCK(Ac)VM-NH2; disulfide 4-12) |  | > 1000 | > 1000 |
| CSCC[C@H](NC(=O)[C@@H](NC(=O)[C@H](CCCCNC(C)=O)NC(=O)[C@@H]1CSSC[C@H](NC(=O)[C@@H](NC(=O)[C@H](CC(=O)O)NC(=O)[C@H](Cc2ccccc2)NC(C)=O)C(C)C)C(=O)N[C@@H](CC(N)=O)C(=O)N[C@@H](Cc2c[nH]c3ccccc23)C(=O)N[C@@H](C(C)C)C(=O)N[C@@H]([C@@H](C)O)C(=O)N[C@@H](CC(C)C)C(=O)N[C@@H](CCCCNC(=O)COCC(=O)Nc2ccc(CCC(=O)N3CCC3=O)cc2)C(=O)N[C@@H](Cc2cnc[nH]2)C(=O)N1)C(C)C)C(N)=O (Ac-FDVCNWVTLK(X1)HCK(Ac)VM-NH2; disulfide 4-12) |  | > 1000 | > 1000 |
| CSCC[C@H](NC(=O)[C@@H](NC(=O)[C@H](CCCCNC(C)=O)NC(=O)[C@@H]1CSSC[C@H](NC(=O)[C@@H](NC(=O)[C@H](CC(=O)O)NC(=O)[C@H](Cc2ccccc2)NC(C)=O)C(C)C)C(=O)N[C@@H](CC(N)=O)C(=O)N[C@@H](Cc2c[nH]c3ccccc23)C(=O)N[C@@H](C(C)C)C(=O)N[C@@H]([C@@H](C)O)C(=O)N[C@@H](CC(C)C)C(=O)N2CCC[C@H]2C(=O)N[C@@H](CCCCNC(=O)COCC(=O)Nc2ccc(CCC(=O)N3CCC3=O)cc2)C(=O)N1)C(C)C)C(N)=O (Ac-FDVCNWVTLPK(X1)CK(Ac)VM-NH2; disulfide 4-12) |  | > 1000 | > 1000 |
